Data set [1] concerns Toledo cells. Briefly: Anti-proliferative combination matrix, Cell Titer-Glo, Toledo. As to conditions: Toledo (WT EZH2); for combination benefit: drug combined with Compound 44, 6 days Compound 44 then 5 days combination.
Experimental: (§6) The WSU-DLCL2 and SU-DHL-10 contain the Y641 EZH2 mutation, and the Toledo cell line contains WT EZH2.
(§7) Increasing doses of drugs were then added to the plates. […] After incubation for an additional 3 days cell viability of WSU-DLCL2 or SU-DHL-10 was measured using Promega Cell Titer-Glo reagent followed by luminescence detection. After 5 days viability of Toledo cells was measured using Promega Cell Titer-Glo reagent followed by luminescence detection.
(§8) First, raw luminescence values were converted to percent inhibition or fraction affected (Fa) calculated using controls for maximum inhibition and DMSO treated cells for minimum inhibition control located on each plate. Percent inhibition values for each constant ratio of compound combinations were entered into Calcusyn to determine the combination index values.
Data set [2] concerns WSU-DLCL2 cells. Briefly: Anti-proliferative combination matrix, Cell Titer-Glo, WSU-DLCL2. As to conditions: for synergy characterization (Chou-Talalay): drug combined with Compound 44; for enhancement of Compound 44 potency (fold IC50 shift): drug combined with Compound 44, top dose of drug, 4 days Compound 44 then 3 days combination.
Experimental: as §6, §7, §8
The subject of data set [3] is SU-DHL-10 cells. Briefly: Anti-proliferative combination matrix, Cell Titer-Glo, SU-DHL-10. As to conditions: for synergy characterization (Chou-Talalay): drug combined with Compound 44; for enhancement of Compound 44 potency (fold IC50 shift): drug combined with Compound 44, top dose of drug, 4 days Compound 44 then 3 days combination. (In general: In ATP-based viability assays light output follows the ATP content of the culture.)
Experimental: as §6, §7, §8

The test system of data set [4] is WSU-DLCL2 human lymphoma cells. Briefly: Cell viability of WSU-DLCL2 cells, Guava ViaCount and flow cytometry. The settings on record: for cell viability, combination with Compound 44: WSU-DLCL2. Format: cell-based. On the procedure: The dosage schedule is depicted in FIG. 1A. […] After 4 days, cell viability was determined using Millipore Guava ViaCount Reagent and flow cytometry analysis.
Cell viability was determined by staining with Millipore Guava ViaCount Reagent and then analyzed by flow cytometry.
(§1) Cell viability was determined 4 days later using Millipore Guava ViaCount reagent and flow cytometry analysis. Percentage of cell viability was normalized to percentage of the DMSO-treated sample.
A general note: In flow cytometry, cells or beads pass a laser one at a time.

Data set [5] concerns RL cells. Briefly: Cell viability of RL cells, Guava ViaCount and flow cytometry. It counts as cell-based, human. As to conditions: RL cells (EZH2 Y641N); for cell viability: single agent. On the procedure: as §1
Data set [6] concerns OCI-LY19 cell line. Kind of data set: Cell viability of OCI-LY19 cells, Guava ViaCount and flow cytometry. Format: cell-based, human. The settings on record: OCI-LY19 (wild-type EZH2); for cell viability: single agent. On the procedure:
as §1

Data set [7] has as its system SUDHL6 human lymphoma cells. Kind of data set: Efficacy study in SUDHL6 xenograft model. As to conditions: Compound 44 alone over the 28 day treatment. It counts as in vivo, athymic nude mice. Here is the method:
(§2) The animals were fed ad libitum water (reverse osmosis 1 ppm Cl) and NIH 31 Modified and Irradiated Lab Diet® consisting of 18.0% crude protein, 5.0% crude fat, and 5.0% crude fiber. The mice were housed on irradiated Enrich-o'cobs™ bedding in static microisolators on a 12-hour light cycle at 20-22° C. (68-72° F.) and 40-60% humidity. All procedures comply with the recommendations of the Guide for Care and Use of Laboratory Animals with respect to restraint, husbandry, surgical procedures, feed and fluid regulation, and veterinary care.
(§3) Human lymphoma cell lines were harvested during mid-log phase growth, and resuspended in PBS with 50% Matrigel™ (BD Biosciences). Each mouse received 1×10^7 cells (0.2 mL cell suspension) subcutaneously in the right flank. Tumors were calipered in two dimensions to monitor growth as the mean volume approached the desired 80-120 mm^3 range. Tumor size, in mm^3, was calculated from: […]
(§4) Mice were treated at compound doses ranging from 75-600 mg/kg and at TID (3 times a day every 8 h), BID (twice a day every 12 h) or QD (once a day) schedules for various amount of days by oral gavage or injections via the intravenous, intraperitoneal or subcutaneous routes. Each dose was delivered in a volume of 0.2 mL/20 g mouse (10 mL/kg), and adjusted for the last recorded weight of individual animals. […]

Data set [8] deals with WSU-DLCL2 human lymphoma cells. Briefly: Efficacy study in WSU-DLCL2 xenograft model. Format: in vivo. As to conditions: 28 days. On the procedure: as §2, §3
(§5) Compounds of Formula (IIa) were stored at room temperature and protected from light. On each treatment day, a fresh compound formulations were prepared by suspending the powders in 0.5% sodium carboxymethylcellulose (NaCMC) and 0.1% Tween® 80 in deionized water. […] Formulations were stored away from light at 4° C. prior to administration.
Several chemotherapeutica were used in parallel to Epizyme compounds. Cyclophosphamide (Baxter, Lot #016591), was reconstituted to 20 mg/mL with sterile saline and stored at 4° C. A fresh dosing solution was prepared for each dose by dilution with saline. Doxorubicin (Doxorubicin Meiji®, Meiji Pharmaceutical Co. Ltd., 1 mg/mL) was stored at 4° C. and diluted with saline on each treatment day. Vincristine (Hospira, Inc., 1 mg/mL) was diluted with saline on each treatment day. Prednisone (Boehringer Ingelheim GmbH, 1 mg/mL) was diluted with PBS at the beginning of each 5-day dosing cycle.
Mice were treated at compound doses ranging from 75-600 mg/kg and at TID (3 times a day every 8 h), BID (twice a day every 12 h) or QD (once a day) schedules for various amount of days by oral gavage or injections via the intravenous, intraperitoneal or subcutaneous routes. Each dose was delivered in a volume of 0.2 mL/20 g mouse (10 mL/kg), and adjusted for the last recorded weight of individual animals. The maximal treatment length was 28 days.
Treatment efficacy was determined on the last treatment day. MTV(n), the median tumor volume for the number of animals, n, evaluable on the last day, was determined for each group. Percent tumor growth inhibition (% TGI) can be defined several ways. First, the difference between the MTV(n) of the designated control group and the MTV(n) of the drug-treated group is expressed as a percentage of the MTV(n) of the control group: […]
Another way of calculating % TGI is taking the change of the tumor size from day 1 to day n into account with n being the last treatment day.
SCID mice were subcutaneously injected with 1×10^7 WSU-DLCL2 human lymphoma cells. […] Tumor volume was measured twice a week until the endpoint of 28 days.

In data set [9] the test system is H3K27me3. Kind of data set: Histone methylation status in WSU-DLCL2 xenograft tumors, Western blot and ELISA. As to conditions: after 28 days of treatment. Format: in vivo, SCID mice. On the procedure: Histones were extracted from tumor samples as described above. […] The plates were sealed and incubated overnight at 4° C. The following day, plates were washed 3× with 300 ul/well PBST (PBS+0.05% Tween 20; 10×PBST, KPL #51-14-02) on a Bio Tek plate washer. Plates were blocked with 300 ul/well of diluent (PBS+2% BSA+0.05% Tween 20), incubated at RT for 2 hours, and washed 3× with PBST. All antibodies were diluted in diluent. […] Plates were washed 4× with PBST. For detection, 100 ul/well of TMB substrate (BioFx Laboratories, #TMBS) was added and plates incubated in the dark at RT for 5 min. […] Absorbance at 450 nm was read on SpectaMax M5 Microplate reader.

In data set [10] the test system is SUDHL10 human lymphoma cells. Format: in vivo. The settings on record: 28 days. Here is the method:
as §2, §3, §5
Several chemotherapeutica were used in parallel to Epizyme compounds. […]
as §4
Treatment efficacy was determined on the last treatment day. MTV(n), the median tumor volume for the number of animals, n, evaluable on the last day, was determined for each group. […] First, the difference between the MTV(n) of the designated control group and the MTV(n) of the drug-treated group is expressed as a percentage of the MTV(n) of the control group: […]

Data set [11] in a line: Compound 44 plasma concentration in WSU-DLCL2 tumor-bearing mice, LC-MS/MS. The settings on record: 225 mg/kg BID.
Experimental: On several days during the study mice were sampled in a pre-specified fashion. Sampling included non-terminal bleeds (0.25 mL) from the mandibular vein without anesthesia and full volume blood collection via terminal cardiac puncture under CO2 anesthesia. Blood samples were processed for plasma, with K2-EDTA as anti-coagulant. The plasma samples were frozen at −80° C. and stored prior to bioanalysis of compound levels.
Plasma samples were obtained on day 28 at 5 minutes prior to the last dose (“trough”) and 3 hours after the last dose (“post”).
[12] abbreviates: Compound 44 for 4 days, then Compound 44 plus agent for 4 days (FIG. 1A schedule).

Entries after “also recorded” stand apart in the source; their conditions may differ. Like-named read-outs stand apart in the source and are kept apart here.

In the case of `CO[C@H]1C[C@@H]2CC[C@@H](C)[C@@](O)(O2)C(=O)C(=O)N2CCCC[C@H]2C(=O)O[C@H]([C@H](C)C[C@@H]2CC[C@@H](OCCO)[C@H](OC)C2)CC(=O)[C@H](C)/C=C(\C)[C@@H](O)[C@@H](OC)C(=O)[C@H](C)C[C@H](C)/C=C/C=C/C=C/1C` [Everolimus], in data set [1], the combination benefit result was “no combination benefit; also recorded: No enhancement”. Further, the “synergy characterization (Chou-Talalay)” value in [2] was “very strong synergism”; in data set [3] it was “Strong synergism”.
Take `C[C@@H]1C[C@H]2[C@@H]3CCC4=CC(=O)C=C[C@]4(C)[C@@]3(F)[C@@H](O)C[C@]2(C)[C@@]1(O)C(=O)CO` [Dexamethasone]: the “enhancement of Compound 44 potency (fold IC50 shift)” value was 17 fold in data set [2] and 3 fold in data set [3].
Regarding `Nc1ccn([C@@H]2O[C@H](CO)[C@@H](O)[C@@H]2O)c(=O)n1` [AraC], the combination benefit entry in data set [1] is “no combination benefit; also recorded: No enhancement”. For the same compound, the “synergy characterization (Chou-Talalay)” value in [2] and in [3] was “Synergism” throughout.
For `C[C@]12C=CC(=O)C=C1CC[C@@H]1[C@@H]2[C@@H](O)C[C@@]2(C)[C@H]1CC[C@]2(O)C(=O)CO` [Prednisolone], the “cell viability, combination with Compound 44” value (shortened to “cell viability, combination”) is “additional reduction of cell viability” in [4] (Compound 44 first, then agent alone (FIG. 1B schedule)); “synergistic reduction in cell viability; also recorded: additional reduction of cell growth; also recorded: reduced cell viability” in data set [4] (setting [12]); “did not cause a synergistic effect on cell viability” in [4] (agent first, then Compound 44 plus agent (FIG. 1C schedule)); “synergistic effect” in data set [5] (FIG. 1A schedule); “does not have an additional or synergistic effect on cell viability” in data set [6] (FIG. 1A schedule). Further, the cell viability result in [5] is on record as “resistant”; in data set [6], “show sensitivity”. Further, the combination benefit entry in [1] is listed as “no combination benefit; also recorded: No enhancement”. In addition, the results for the “enhancement of Compound 44 potency (fold IC50 shift)” value in data set [2] and in data set [3] were 7 fold and 3 fold, respectively.
`COc1cccc2c1C(=O)c1c(O)c3c(c(O)c1C2=O)C[C@@](O)(C(=O)CO)C[C@@H]3O[C@H]1C[C@H](N)[C@H](O)[C@H](C)O1` [Doxorubicin]: the “cell viability, combination” value in data set [4] (setting [12]) is reported as “did not exhibit reduced cell viability”. Moreover, the combination benefit entry in data set [1] is listed as “no combination benefit; also recorded: No enhancement”. Also, the “synergy characterization (Chou-Talalay)” value in [2] and in data set [3] was “Synergism” in each case.
With `CC[C@]1(O)C[C@H]2CN(CCc3c([nH]c4ccccc34)[C@@](C(=O)OC)(c3cc4c(cc3OC)N(C=O)[C@H]3[C@@](O)(C(=O)OC)[C@H](OC(C)=O)[C@]5(CC)C=CCN6CC[C@]43[C@@H]65)C2)C1` [Vincristine], in data set [4] (setting [12]), the “cell viability, combination” value is given as “reduced cell viability at the highest concentration Compound 44”.
As to `N.N.[Cl][Pt][Cl]` [Cisplatin], the combination benefit result in [1] is given as “no combination benefit; also recorded: No enhancement”. Besides, the “synergy characterization (Chou-Talalay)” value in [2] is “Synergism”; in data set [3], “synergism”.
Turning to `CCN(c1cc(-c2ccc(CN3CCOCC3)cc2)cc(C(=O)NCc2c(C)cc(C)[nH]c2=O)c1C)C1CCOCC1` [Compound 44, N-((4,6-dimethyl-2-oxo-1,2-dihydropyridin-3-yl)methyl)-5-(ethyl (tetrahydro-2H-pyran-4-yl)amino)-4-methyl-4′-(morpholinomethyl)-[1,1′-biphenyl]-3-carboxamide], the cell viability result in data set [4] (single agent, increasing concentrations, WSU-DLCL2 (EZH2 Y641F)) was “decrease in cell viability; also recorded: reduction of cell growth”; in data set [5] it was “does not result in a reduction in cell viability”; in [6], “does not affect cell viability; also recorded: do not show sensitivity”. Also, the single agent efficacy result in [7] is given as “not observed”. Further, the “% TGI from day 1” value in data set [8] (Compound 44 150 mg/kg TID) turned out to be 73%; in data set [8] (Compound 44 225 mg/kg BID) it was 71%; in [8] (Compound 44 300 mg/kg BID) it was 57%; in [8] (Compound 44 600 mg/kg QD), 58%. The “% TGI from day 7” value came to 86% in [8] (Compound 44 150 mg/kg TID); 80% in data set [8] (Compound 44 225 mg/kg BID); 67% in [8] (Compound 44 300 mg/kg BID); 70% in data set [8] (Compound 44 600 mg/kg QD); 57% in data set [10] (Compound 44 125 mg/kg BID); 113% in data set [10] (Compound 44 250 mg/kg BID). In addition, the “% TGI from day 7” value in data set [10] (Compound 44 500 mg/kg BID) amounted to 115%. For the same compound, the “methylation of H3K27 in tumors, ELISA” value in data set [9] (H3K27me3 normalized to total H3) is “inhibited”. In addition, the “methylation of H3K27 in tumors, Western blot” value in data set [9] (all dosages and dosing schedules) was “inhibited”. For the same compound, the “sensitivity of cell viability” value in [1] (Compound 44 alone) is “no sensitivity”. The “Compound 44 plasma level, with CHOP vs single agent” value in data set [11] (day 28, 3 hours after the last dose) was “significantly increased”; in data set [11] (day 28, trough (5 minutes prior to the last dose)), “not significantly different”.

The record behind these values is US11370781B2, “Combination therapy for treating cancer” (Epizyme, Inc., priority 2012, dated 2022).
